Converted amounts (≈) assume the structure as drawn.
Key:
Test in all cases: In vitro antibacterial activity, microbroth dilution method (NCCLS method)
Assay type in all cases: cell-based
H. influenzae ATCC 43095 = conditions: Haemophilus influenzae, ATCC43095; bacteria symbol A = H. influenzae ATCC 43095; read-out: MIC values (minimum inhibitory concentration)
Description: (§1) In vitro antibacterial activities of the compounds of the present invention against various test bacteria were measured according to the microbroth dilution method (NCCLS method). As test compounds, the compounds of Examples 7, 23, 114, 126, 131, 210, 214, 231, 257, 261, 287, 363, 366, 563 and Comparative agent 1: clarithromycin were used. The results are shown as MIC values (minimum inhibitory concentration, μg/ml) in Table 21.

S. pneumoniae 205 = conditions: Streptococcus pneumoniae; bacteria symbol C = S. pneumoniae 205; read-out: MIC values (minimum inhibitory concentration)
Description: as §1

S. pneumoniae ATCC 49619 = conditions: Streptococcus pneumoniae, ATCC49619; bacteria symbol B = S. pneumoniae ATCC 49619; read-out: MIC values (minimum inhibitory concentration)
Description: as §1

MIC (H. influenzae ATCC 43095) | MIC (S. pneumoniae 205) | MIC (S. pneumoniae ATCC 49619) | SMILES
4 µg/mL (≈ 5.35 µM) | > 128 µg/mL | 0.03 µg/mL (≈ 0.0401 µM) | CC[C@H]1OC(=O)[C@H](C)[C@@H](O[C@H]2C[C@@](C)(OC)[C@@H](O)[C@H](C)O2)[C@H](C)[C@@H](O[C@@H]2O[C@H](C)C[C@H](N(C)C)[C@H]2O)[C@](C)(OC)C[C@@H](C)C(=O)[C@H](C)[C@@H](O)[C@]1(C)O [Comparative agent 1, clarithromycin]
4 µg/mL (≈ 5.56 µM) | 64 µg/mL (≈ 89 µM) | 0.12 µg/mL (≈ 0.167 µM) | CO[C@]1(C)C[C@H](O[C@H]2[C@H](C)[C@@H](O[C@@H]3O[C@H](C)C[C@H](N(C)C)[C@H]3O)[C@@](C)(OC)C[C@@H](C)[C@H](O)[C@H](C)N(C)C(C)C(C)OC(=O)[C@@H]2C)O[C@@H](C)[C@@H]1O (stereo partly drawn) [Example 261]
